Reference: patent US7592457B2 (Korea Research Institute of Chemical Technology, priority 2004, dated 2009)

Experiments:
[1] = target: T1, human serotonin 5-HT6 receptor (Homo sapiens, UniProt P50406); assay: [3H]LSD binding at cloned 5-HT6 receptors; conditions: for IC50: [3H]LSD 1.87 nM, cloned receptor membranes, 37° C., 60 min, read-out: IC50; for inhibition at 10 µM: read-out: Binding affinity (Inhibition rate % at 10 μM) 5HT6
T1 construct: made in house; host or cells: Sf21 insect cells (pBacPAK8 baculovirus vector)
T1 sequence (P50406 whole entry): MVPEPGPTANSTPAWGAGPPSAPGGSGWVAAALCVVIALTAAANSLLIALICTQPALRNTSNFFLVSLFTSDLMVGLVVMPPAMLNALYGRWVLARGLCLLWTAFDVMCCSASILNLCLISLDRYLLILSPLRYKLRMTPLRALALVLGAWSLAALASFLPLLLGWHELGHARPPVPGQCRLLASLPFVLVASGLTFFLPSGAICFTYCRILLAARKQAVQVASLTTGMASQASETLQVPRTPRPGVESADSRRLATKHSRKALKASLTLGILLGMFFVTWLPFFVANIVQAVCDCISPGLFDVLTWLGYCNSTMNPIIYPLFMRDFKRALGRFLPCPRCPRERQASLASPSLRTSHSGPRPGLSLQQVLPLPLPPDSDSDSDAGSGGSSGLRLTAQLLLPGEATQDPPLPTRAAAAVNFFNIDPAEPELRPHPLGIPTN

D1 = D1 (Homo sapiens, UniProt P21728); assay: Radioligand binding for selectivity, D1; conditions: read-out: Binding affinity (Inhibition rate % at 10 μM) D1
D1, sequence (P21728 whole entry): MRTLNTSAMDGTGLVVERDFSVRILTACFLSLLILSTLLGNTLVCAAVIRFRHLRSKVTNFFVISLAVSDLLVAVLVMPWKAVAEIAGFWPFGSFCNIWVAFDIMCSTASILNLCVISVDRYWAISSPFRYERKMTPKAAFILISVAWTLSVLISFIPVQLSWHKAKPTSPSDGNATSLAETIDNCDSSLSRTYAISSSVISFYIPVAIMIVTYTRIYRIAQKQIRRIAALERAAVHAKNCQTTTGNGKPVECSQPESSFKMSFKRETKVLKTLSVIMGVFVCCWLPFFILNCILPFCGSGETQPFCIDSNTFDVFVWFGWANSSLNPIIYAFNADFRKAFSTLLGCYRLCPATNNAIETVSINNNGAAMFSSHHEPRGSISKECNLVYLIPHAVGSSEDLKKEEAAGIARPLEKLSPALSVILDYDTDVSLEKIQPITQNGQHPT

hD2L receptor = target: T2, hD2L receptor (Homo sapiens, UniProt P14416); assay: Radioligand binding, dopamine D2 ([3H]spiperone); conditions: read-out: Binding affinity (Inhibition rate % at 10 μM) D2
T2 construct: purchased BioSignal Packard Inc., Montreal, Canada
T2 sequence (P14416 whole entry): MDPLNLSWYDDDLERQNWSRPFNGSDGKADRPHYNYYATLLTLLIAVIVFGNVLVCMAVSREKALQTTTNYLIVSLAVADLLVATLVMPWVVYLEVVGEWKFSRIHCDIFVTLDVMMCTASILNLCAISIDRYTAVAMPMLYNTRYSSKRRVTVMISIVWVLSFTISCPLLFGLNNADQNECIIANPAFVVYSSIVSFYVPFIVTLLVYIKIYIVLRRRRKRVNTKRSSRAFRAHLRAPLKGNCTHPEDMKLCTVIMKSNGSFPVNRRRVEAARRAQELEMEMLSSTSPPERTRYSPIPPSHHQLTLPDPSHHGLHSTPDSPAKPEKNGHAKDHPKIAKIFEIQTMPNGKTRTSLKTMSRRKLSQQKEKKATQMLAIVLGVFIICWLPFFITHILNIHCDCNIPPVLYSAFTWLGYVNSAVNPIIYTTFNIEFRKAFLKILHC
Method: (§1) The radioligands used were [^3H] spiperone (for hD2L and hD3 receptors, 1 nM) and [^3H] YM-09151-2 (for hD4.2 receptor, 0.06 nM). Radioligand bindings were performed by the protocols provided by the supplier of receptor membranes (BioSignal Packard Inc., Montreal, Canada). Briefly, the buffer used in D2 or D3 receptor binding assay was 50 mM Tris-HCl (pH 7.4), 10 mM MgCl2, 1 mM EDTA, or 50 mM Tris-HCl (pH 7.4), 5 mM MgCl2, 5 mM EDTA, 5 mM KCl, 1.5 mM CaCl2, 120 mM NaCl, respectively. In [^3H] YM-09151-2 receptor binding assays, the buffer containing 50 mM Tris-HCl (pH 7.4), 5 mM MgCl2, 5 mM EDTA, 5 mM KCl and 1.5 mM CaCl2 was used. Nonspecific binding was determined with haloperidol (10 μM) or clozapine (10 μM) for D2 and D3, and D4 receptors, respectively. Competition binding studies were carried out with 7-8 concentrations of the test compound run in duplicate tubes, and isotherms from three assays were calculated by computerized nonlinear regression analysis (GraphPad Prism Program, San Diego, […]) to yield median inhibitory concentration (IC50) values.

hD3 receptor = target: T3, hD3 receptor (Homo sapiens, UniProt P35462); assay: Radioligand binding, dopamine D3 ([3H]spiperone); conditions: read-out: Binding affinity (Inhibition rate % at 10 μM) D3
T3 construct: purchased BioSignal Packard Inc., Montreal, Canada
T3 sequence (P35462 whole entry): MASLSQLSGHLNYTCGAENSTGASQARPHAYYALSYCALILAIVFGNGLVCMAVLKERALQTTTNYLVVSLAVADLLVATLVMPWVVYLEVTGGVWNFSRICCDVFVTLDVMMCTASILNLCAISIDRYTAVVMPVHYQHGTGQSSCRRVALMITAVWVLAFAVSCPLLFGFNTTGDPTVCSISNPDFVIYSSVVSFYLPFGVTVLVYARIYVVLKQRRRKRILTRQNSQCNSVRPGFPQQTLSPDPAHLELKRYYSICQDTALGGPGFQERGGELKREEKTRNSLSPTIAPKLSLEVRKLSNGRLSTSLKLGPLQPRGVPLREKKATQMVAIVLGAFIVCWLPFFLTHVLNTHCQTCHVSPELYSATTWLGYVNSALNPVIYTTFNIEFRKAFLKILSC
Method: as §1

hD4.2 receptor = target: T4, hD4.2 receptor (Homo sapiens, UniProt P21917, DEL265-296); assay: Radioligand binding, dopamine D4 ([3H]YM-09151-2); conditions: read-out: Binding affinity (Inhibition rate % at 10 μM) D4
T4 construct: purchased BioSignal Packard Inc., Montreal, Canada
T4 sequence (P21917 with tags, fused parts or gaps DEL265-296): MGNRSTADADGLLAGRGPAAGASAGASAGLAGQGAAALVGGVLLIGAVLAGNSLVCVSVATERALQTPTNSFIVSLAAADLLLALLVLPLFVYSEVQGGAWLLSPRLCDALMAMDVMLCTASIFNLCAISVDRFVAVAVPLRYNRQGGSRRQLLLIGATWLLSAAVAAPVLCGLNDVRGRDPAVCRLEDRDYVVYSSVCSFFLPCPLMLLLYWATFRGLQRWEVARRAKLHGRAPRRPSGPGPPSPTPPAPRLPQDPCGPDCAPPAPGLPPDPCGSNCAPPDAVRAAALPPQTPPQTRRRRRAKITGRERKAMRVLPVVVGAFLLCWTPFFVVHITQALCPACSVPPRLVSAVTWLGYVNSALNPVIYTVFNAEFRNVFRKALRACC
Method: as §1

5-HT1a = target: T5, 5-HT1a (Homo sapiens, UniProt P08908); assay: Radioligand binding, 5-HT1a ([3H]8-OH-DPAT); conditions: read-out: Binding affinity (Inhibition rate % at 10 μM) 5HT1a
T5 construct: purchased Euroscreen/BioSignal Packard Inc
T5 sequence (P08908 1-422): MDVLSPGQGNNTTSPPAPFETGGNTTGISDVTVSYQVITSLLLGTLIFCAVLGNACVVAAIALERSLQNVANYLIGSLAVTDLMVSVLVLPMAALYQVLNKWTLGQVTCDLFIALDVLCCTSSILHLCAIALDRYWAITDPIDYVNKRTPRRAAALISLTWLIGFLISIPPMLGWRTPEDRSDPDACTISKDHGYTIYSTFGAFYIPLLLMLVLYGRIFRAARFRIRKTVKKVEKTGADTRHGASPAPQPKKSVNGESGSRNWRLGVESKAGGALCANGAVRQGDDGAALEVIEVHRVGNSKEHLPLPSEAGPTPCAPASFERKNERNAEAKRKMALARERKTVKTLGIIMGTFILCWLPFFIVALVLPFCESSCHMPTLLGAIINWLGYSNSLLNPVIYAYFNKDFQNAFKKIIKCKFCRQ
Method: (§2) Radioligand bindings were performed according to the test method provided by the supplier of receptor membrane (Euroscreen/BioSignal Packard Inc.).

5-HT2a = target: T6, 5-HT2a (Homo sapiens, UniProt P28223); assay: Radioligand binding, 5-HT2a ([3H]Ketanserin); conditions: read-out: Binding affinity (Inhibition rate % at 10 μM) 5HT2a
T6 construct: purchased Euroscreen/BioSignal Packard Inc
T6 sequence (P28223 whole entry): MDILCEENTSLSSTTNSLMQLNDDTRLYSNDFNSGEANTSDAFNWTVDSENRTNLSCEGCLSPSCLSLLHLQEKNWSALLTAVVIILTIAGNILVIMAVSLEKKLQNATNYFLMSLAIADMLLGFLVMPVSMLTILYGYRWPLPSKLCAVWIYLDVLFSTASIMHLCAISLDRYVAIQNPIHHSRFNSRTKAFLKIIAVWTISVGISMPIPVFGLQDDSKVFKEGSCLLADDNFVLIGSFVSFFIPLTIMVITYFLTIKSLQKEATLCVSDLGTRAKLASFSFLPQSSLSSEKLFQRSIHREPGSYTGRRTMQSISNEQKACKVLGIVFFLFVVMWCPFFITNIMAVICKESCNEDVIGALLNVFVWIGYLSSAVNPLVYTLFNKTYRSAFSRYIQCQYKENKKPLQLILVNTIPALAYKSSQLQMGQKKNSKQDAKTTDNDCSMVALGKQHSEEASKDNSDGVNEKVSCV
Method: as §2

5-HT2c = target: T7, 5-HT2c (Homo sapiens, UniProt P28335); assay: Radioligand binding, 5-HT2c ([3H]Mesulergine); conditions: read-out: Binding affinity (Inhibition rate % at 10 μM) 5HT2c
T7 construct: purchased Euroscreen/BioSignal Packard Inc
T7 sequence (P28335 33-458): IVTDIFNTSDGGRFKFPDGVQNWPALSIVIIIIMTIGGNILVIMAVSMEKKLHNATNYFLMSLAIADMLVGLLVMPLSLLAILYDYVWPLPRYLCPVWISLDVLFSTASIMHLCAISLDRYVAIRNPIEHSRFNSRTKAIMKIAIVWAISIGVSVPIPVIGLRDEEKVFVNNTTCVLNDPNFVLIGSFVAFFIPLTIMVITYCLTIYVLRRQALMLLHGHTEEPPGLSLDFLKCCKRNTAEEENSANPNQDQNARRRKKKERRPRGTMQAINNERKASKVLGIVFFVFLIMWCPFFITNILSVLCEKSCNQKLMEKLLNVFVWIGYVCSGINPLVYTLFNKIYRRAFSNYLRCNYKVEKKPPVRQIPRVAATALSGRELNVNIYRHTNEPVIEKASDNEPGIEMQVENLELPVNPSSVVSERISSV
Method: as §2

5-HT7 = target: T8, 5-HT7 (Homo sapiens, UniProt P34969); assay: Radioligand binding, 5-HT7 ([3H]LSD); conditions: read-out: Binding affinity (Inhibition rate % at 10 μM) 5HT7
T8 construct: purchased Euroscreen/BioSignal Packard Inc
T8 sequence (P34969 whole entry): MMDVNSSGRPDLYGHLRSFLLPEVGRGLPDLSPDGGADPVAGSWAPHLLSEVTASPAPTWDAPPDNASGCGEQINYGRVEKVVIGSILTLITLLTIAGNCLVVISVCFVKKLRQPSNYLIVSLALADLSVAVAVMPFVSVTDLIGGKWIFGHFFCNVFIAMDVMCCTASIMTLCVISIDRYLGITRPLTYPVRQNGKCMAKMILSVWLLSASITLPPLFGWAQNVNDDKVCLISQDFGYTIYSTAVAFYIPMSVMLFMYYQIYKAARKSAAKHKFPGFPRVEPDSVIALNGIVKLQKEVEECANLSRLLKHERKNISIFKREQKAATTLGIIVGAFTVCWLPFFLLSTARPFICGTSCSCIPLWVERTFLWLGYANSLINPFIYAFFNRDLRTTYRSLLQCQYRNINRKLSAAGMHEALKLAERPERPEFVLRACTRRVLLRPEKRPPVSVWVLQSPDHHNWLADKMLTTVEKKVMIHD
Method: as §2

SMILES | IC50 [1] [µM] | inhibition at 10 µM [1] [%] | inhibition at 10 µM (D1) [%] | inhibition at 10 µM (hD2L receptor) [%] | inhibition at 10 µM (hD3 receptor) [%] | inhibition at 10 µM (hD4.2 receptor) [%] | inhibition at 10 µM (5-HT1a) [%] | inhibition at 10 µM (5-HT2a) [%] | inhibition at 10 µM (5-HT2c) [%] | inhibition at 10 µM (5-HT7) [%] | melting point [°C] | 5-HT6 affinity compared with known selective antagonists ([1]; in words)
CC1(c2ccccc2)C(=O)Nc2ccccc2C1=O (stereo not shown) [Example 2, 3-methyl-3-phenyl-1H-quinoline-2,4-dione] | 1.08 | 73.2 | 10.2 | 5.6 | 12.2 | 0 | 15 | 8.4 | 30.6 | 10.4 | 194 to 196 | 
CC1(c2ccc(O)cc2)C(=O)Nc2ccccc2C1=O (stereo not shown) [Example 34, 3-(4-hydroxy-phenyl)-3-methyl-1H-quinoline-2,4-dione] | 1.26 | 70.8 | 15.8 | 17.3 | 25.4 | 0 | 19.8 | 13.5 | 20.1 | 0.9 |  | 
CC1(c2ccc([N+](=O)[O-])cc2)C(=O)Nc2cc(Cl)c(Cl)cc2C1=O (stereo not shown) [Example 36, 6,7-dichloro-3-methyl-3-(4-nitro-phenyl)-1H-quinoline-2,4-dione] | 0.645 | 71.9 | 12.6 | 16.5 | 11.9 | 0 | 42.1 | 13.2 | 8.2 | 16.5 |  | 
CNc1ccc(C2(C)C(=O)Nc3cc(Cl)cc(Cl)c3C2=O)cc1 (stereo not shown) [Example 39, 5,7-dichloro-3-methyl-3-(4-methylamino-phenyl)-1H-quinoline-2,4-dione] | 0.418 | 72 | 38.5 | 19.8 | 8.4 | 10.2 | 23 | 12.1 | 13.1 | 9.1 |  | 
CCNc1ccc(C2(C)C(=O)Nc3cc(Cl)cc(Cl)c3C2=O)cc1 (stereo not shown) [Example 41, 5,7-dichloro-3-methyl-3-(4-ethylamino-phenyl)-1H-quinoline-2,4-dione] | 0.046 | 67.7 | 24 | 25.2 | 12.6 | 0 | 15.7 | 10.8 | 14 | 15.4 |  | almost same affinities as or better affinities than known selective antagonists
C[C@H](NC(=O)Nc1cccc([C@@]2(C)C(=O)Nc3cc(Cl)cc(Cl)c3C2=O)c1)c1ccccc1 [Example 43, 1-(R)-[3-(5,7-dichloro-3-methyl-2,4-dioxo-1,2,3,4-tetrahydro-quinoline-3-yl) -phenyl]-3-(1-(S) -phenyl-ethyl) -urea] | 1.11 | 70.6 | 30.1 | 5.7 | 24 | 6.1 | 18 | 21.3 | 0 | 5 |  | 
C[C@H](NC(=O)Nc1cccc([C@]2(C)C(=O)Nc3cc(Cl)cc(Cl)c3C2=O)c1)c1ccccc1 [Example 44, 1-(S)-[3-(5,7-dichloro-3-methyl-2,4-dioxo-1,2,3,4-tetrahydro-quinoline-3-yl) -phenyl]-3-(1-(S) -phenyl-ethyl) -urea] | 0.791 | 73.8 | 35 | 11.5 | 16.2 | 0 | 25.4 | 58.5 | 21.5 | 32.2 |  | 
CC1(c2ccc(Br)cc2Br)C(=O)Nc2cc(Cl)ccc2C1=O (stereo not shown) [Example 45, 7-chloro-3-(2,4-dibromo-phenyl)-3-methyl-1H-quinoline-2,4-dione] | 2.22 | 66 | 42.3 | 13 | 5.6 | 0 | 60.3 | 23 | 31.6 | 29.5 |  | 
CN1CCN(c2cc(Cl)c3c(c2)NC(=O)C(C)(c2ccc(O)cc2)C3=O)CC1 (stereo not shown) [Example 47, 5-chloro-3-(4-hydroxy-phenyl)-3-methyl-7-(4-methyl-piperazine-1-yl)-1H-quinoline-2,4-dione] | 1.06 | 71.9 | 20.9 | 27.2 | 14.2 | 12.8 | 27.1 | 42.8 | 12.4 | 16.3 |  | 
CN1CCN(c2cc(Cl)c3c(c2)NC(=O)C(C)(c2ccc(N)cc2)C3=O)CC1 (stereo not shown) [Example 48, 3-(4-amino-phenyl) -5-chloro-3-methyl-7-(4-methyl-piperazine-1-yl)-1H-quinoline-2,4-dione] | 1.08 | 71.6 | 27.4 | 19.6 | 8.7 | 0 | 35 | 37.2 | 2.5 | 5.6 |  | 
CN1CCN(c2cc(Cl)c3c(c2)NC(=O)C(C)(c2ccc([N+](=O)[O-])cc2)C3=O)CC1 (stereo not shown) [Example 49, 5-chloro-3-methyl-7-(4-methyl-piperazine-1-yl)-3-(4-nitro-phenyl)-1H-quinoline-2,4-dione] | 1.02 | 70.2 | 26 | 10.5 | 12.4 | 0 | 1.4 | 33.4 | 19.8 | 24.4 |  | 
